2 compounds from patent US11952582B2, “Herbicide-resistance gene and application thereof in plant breeding” (priority 2017, dated 2024) can be followed below.

Test [1] addresses PaHPPD-SDM (Pseudomonas aeruginosa, UniProt Q9I576, A156V/E349K/R282S). The following applies: higher doses in the range 0-60 of herbicide.
Source text: Specifically, the presence of tyrosine aminotransferase in E. coli DH5a can catalyze the production of p-hydroxyphenylpyruvate (4-HPP) from tyrosine, which is used as a substrate for HPPD to produce homogentisic acid (HGA). After further oxidation and polymerization, a brown substance is produced. The addition of HPPD inhibitors will inhibit this reaction, thereby reducing the production of pigment. Therefore, the gradation of pigment can be used as an inhibition index of HPPD activity. […] Through heterologous expression of HPPD mutant genes from different species in E. coli DH5α, the resistance characteristics of E. coli DH5α-mutated gene to triketone herbicides were analyzed by detecting the absorption value of pigment at 405 nm (FIGS. 2-6, 8 and 9).
The PaHPPD mutants obtained by random mutation was cloned into E. coli cells together with wild-type PaHPPD and AtHPPD for comparation and screening.
The bacteria solution shaking cultured overnight at 37° C. was centrifuged, and 200 μL of supernatant was transferred to a sterile 96-well plate (microplate with high throughput characteristics) using a 200 μL pipette on an ultra-clean workbench. The pigment content was measured with a microtiter plate reader at a wavelength of 405 nm (OD405 nm), and the HPPD activity was evaluated according to the size of the OD value.
Then the obtained PaHPPD-SDM mutant was compared with its parental mutants (PaHPPD-M3, PaHPPD-DS18, and PaHPPD-DS73) to understand their ability of brown pigmentation in the presence of triketone herbicides at different doses (0-60 μM). The calculation formula of HPPD activity (%) is as follows: HPPD activity(%)=(Am/Ac)×100
Wherein Am refers to the average value of the absorbance at a specific herbicide dose, and Ac refers to the average value of the absorbance without the herbicide.
Test [2] has as its system Arabidopsis WT (Col0), OE At, OE Pa, OE M3 lines. Kind of test: Arabidopsis seed germination test on herbicide-containing 1/2 MS medium. As to conditions: 2 weeks. Format: in vivo, Arabidopsis thaliana. As to the method: In order to evaluate the resistance of different HPPD overexpression lines to herbicides, Arabidopsis seed germination tests were performed on media containing different concentrations of herbicides. T3 generation Arabidopsis seeds and Co10 (WT) seeds were performed steam surface sterilization (concentrated HCl: NaClO=1:5, v/v) for 3 h. Seeds of OE At (OE At #1, OE At #2), OE Pa (OE Pa #1, OE Pa #2), OE M3 (OE M3 #1, OE M3 #2) and Co10 (WT) were dibbled together in ^1/2 MS medium (0.5 x MS salt, 1% sucrose and 0.8% agar) in a 24-well plate, and the medium contained different concentrations (0, 31.25, 62.5, 125, 500 and 2000 nM) of mesotrione (Sigma Aldrich, USA) and sulcotrione (Sigma Aldrich, USA). Then, the plate dibbled seeds was placed in the dark at 4° C. for 3 d, and then transferred to a growth chamber at 22° C. (16 h light/8 h dark) for 2 weeks. Three biological replicates were performed per treatment per species. After 2 weeks, the test results were photographed.

Sequence of PaHPPD-SDM (Q9I576 whole entry A156V/R282S/E349K): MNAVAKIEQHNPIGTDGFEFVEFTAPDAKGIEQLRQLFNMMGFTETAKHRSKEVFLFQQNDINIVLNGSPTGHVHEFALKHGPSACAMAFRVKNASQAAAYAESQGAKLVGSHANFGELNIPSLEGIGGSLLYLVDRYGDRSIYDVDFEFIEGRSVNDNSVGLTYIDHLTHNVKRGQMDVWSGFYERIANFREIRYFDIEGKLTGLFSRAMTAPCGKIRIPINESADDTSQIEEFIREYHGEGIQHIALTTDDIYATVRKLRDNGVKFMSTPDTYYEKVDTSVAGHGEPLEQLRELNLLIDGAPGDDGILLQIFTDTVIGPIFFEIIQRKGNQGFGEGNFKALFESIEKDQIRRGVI

For `CS(=O)(=O)c1ccc(C(=O)C2C(=O)CCCC2=O)c(Cl)c1COCC(F)(F)F` [tembotrion], in test [1], the “resistance by HPPD activity (%) compared with WT, PaHPPD-M3, PaHPPD-DS18 and PaHPPD-DS73” value is recorded as “improved the resistance”.

With `CS(=O)(=O)c1ccc(C(=O)C2C(=O)CCCC2=O)c(Cl)c1` [sulcotrione], the “resistance by HPPD activity (%) compared with WT, PaHPPD-M3, PaHPPD-DS18 and PaHPPD-DS73” value in test [1] is “improved the resistance”. For the same compound, the “concentration giving albino death / severely inhibited growth” value in test [2] (OE At (two lines) and WT) was 31.25 nM. The “concentration at which seedlings grow normally” value in test [2] (OE Pa (two lines), T3 seeds) stood at 62.5 nM.
